Values joined by “and” are separate entries in the source; they are usually repeats but may differ in a detail not shown here. Equal entries are not always repeated. Active and inactive are the calls of the source.

Among the targets are Cytochrome P450 2C9 (Homo sapiens, UniProt P11712); Cytochrome P450 3A4 (Homo sapiens, UniProt P08684); Cytochrome P450 2D6 (Homo sapiens, UniProt P10635).
In a further data set the target is Cytochrome P450 2C19 (Homo sapiens, UniProt P33261). Briefly: Cytochrome panel assay with activity outcomes. Panel member name: p450-cyp2c19 Compounds with AC50 equal or less than 10 uM are considered active. The class given is functional.
Sequence of Cytochrome P450 2C19 (P33261 whole entry): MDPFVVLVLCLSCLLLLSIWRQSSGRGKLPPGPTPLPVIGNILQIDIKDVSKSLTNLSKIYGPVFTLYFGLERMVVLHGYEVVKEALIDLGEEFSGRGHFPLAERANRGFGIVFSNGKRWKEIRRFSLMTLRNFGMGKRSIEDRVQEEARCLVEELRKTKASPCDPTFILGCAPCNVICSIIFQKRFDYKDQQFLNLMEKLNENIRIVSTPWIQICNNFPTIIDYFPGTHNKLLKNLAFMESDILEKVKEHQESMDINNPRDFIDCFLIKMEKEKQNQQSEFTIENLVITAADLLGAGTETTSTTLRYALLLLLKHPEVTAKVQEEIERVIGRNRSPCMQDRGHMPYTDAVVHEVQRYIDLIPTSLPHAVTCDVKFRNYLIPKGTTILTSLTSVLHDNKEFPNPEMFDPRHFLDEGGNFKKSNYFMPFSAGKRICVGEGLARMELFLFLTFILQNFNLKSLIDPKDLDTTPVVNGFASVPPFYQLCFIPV
Data set [1] concerns the target T1, Heat shock factor protein 1 (Mus musculus, UniProt P38532).
T1 sequence (P38532 whole entry): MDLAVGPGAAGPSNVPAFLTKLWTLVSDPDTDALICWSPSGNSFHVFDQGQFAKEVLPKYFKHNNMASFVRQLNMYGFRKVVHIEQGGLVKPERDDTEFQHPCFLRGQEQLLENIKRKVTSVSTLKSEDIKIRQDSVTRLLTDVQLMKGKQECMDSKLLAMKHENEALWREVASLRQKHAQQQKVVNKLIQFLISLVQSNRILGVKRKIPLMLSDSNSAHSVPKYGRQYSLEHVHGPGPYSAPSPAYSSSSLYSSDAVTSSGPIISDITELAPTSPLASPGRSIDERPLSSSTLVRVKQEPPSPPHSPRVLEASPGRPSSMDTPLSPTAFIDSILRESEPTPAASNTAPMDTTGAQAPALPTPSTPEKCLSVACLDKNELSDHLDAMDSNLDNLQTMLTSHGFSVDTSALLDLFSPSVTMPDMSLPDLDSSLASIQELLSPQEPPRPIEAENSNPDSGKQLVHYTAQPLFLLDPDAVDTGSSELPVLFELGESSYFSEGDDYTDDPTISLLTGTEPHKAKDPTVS
Briefly: decrease of HSF1-responsive luciferase luminescence – cell-based, NIH3T3, dose retest, confirmation (AID 2382).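 Further: NIH3T3 fibroblasts with HSF1-driven luciferase reporter stressed by proteasome inhibitor MG132; luminescence from HSF1-driven luciferase expression after 8 hours of MG132 stress.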 The class given is functional.

A further data set deals with Streptococcus. Briefly: GAS UMAA2166 growth inhibition – luminescence, BacTiterGlo, counter-screen for streptokinase expression inhibitor project, dose response (AID 1915).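 Further: potency for reduction of bacterial viability or growth.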 It counts as functional, organism-based.
In another data set the target is T2, Streptokinase A (Streptococcus pyogenes serotype M1, UniProt P10520).
T2 sequence (P10520 whole entry): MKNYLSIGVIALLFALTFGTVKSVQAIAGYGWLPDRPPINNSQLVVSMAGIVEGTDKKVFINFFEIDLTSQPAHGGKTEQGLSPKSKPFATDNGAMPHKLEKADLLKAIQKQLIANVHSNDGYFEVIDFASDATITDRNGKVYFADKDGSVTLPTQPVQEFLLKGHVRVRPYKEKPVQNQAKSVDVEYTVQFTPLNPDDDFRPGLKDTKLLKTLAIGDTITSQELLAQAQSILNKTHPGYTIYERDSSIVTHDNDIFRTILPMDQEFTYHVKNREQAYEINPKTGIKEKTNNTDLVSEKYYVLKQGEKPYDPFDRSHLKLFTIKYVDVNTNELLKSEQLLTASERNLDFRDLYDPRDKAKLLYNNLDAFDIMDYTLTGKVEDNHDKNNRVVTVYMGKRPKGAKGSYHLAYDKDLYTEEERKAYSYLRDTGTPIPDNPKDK
Briefly: viability-normalized secreted streptokinase activity reduction – plasminogen activation absorbance, OD405, dose response (AID 1914).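 Further: secreted streptokinase activity via plasminogen activation per viability signal from cell pellet.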 It counts as functional, Streptococcus pyogenes M1 GAS.

Data set [2] concerns Streptococcus sp. 'group A'. Briefly: Streptococcus pyogenes SK(-)GAS viability under kanamycin – luminescence, BacTiterGlo, confirmation, counter-screen for streptokinase expression inhibitor project, dose response (AID 1900). It counts as functional, organism-based. In general terms: Counterscreens check selectivity or assay interference.
Another data set has as its target T3, Cytochrome P450 1A2 (Homo sapiens, UniProt P05177).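 Further: PubChem cytochrome P450 panel assay, CYP1A2 panel member.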
T3 sequence (P05177 whole entry): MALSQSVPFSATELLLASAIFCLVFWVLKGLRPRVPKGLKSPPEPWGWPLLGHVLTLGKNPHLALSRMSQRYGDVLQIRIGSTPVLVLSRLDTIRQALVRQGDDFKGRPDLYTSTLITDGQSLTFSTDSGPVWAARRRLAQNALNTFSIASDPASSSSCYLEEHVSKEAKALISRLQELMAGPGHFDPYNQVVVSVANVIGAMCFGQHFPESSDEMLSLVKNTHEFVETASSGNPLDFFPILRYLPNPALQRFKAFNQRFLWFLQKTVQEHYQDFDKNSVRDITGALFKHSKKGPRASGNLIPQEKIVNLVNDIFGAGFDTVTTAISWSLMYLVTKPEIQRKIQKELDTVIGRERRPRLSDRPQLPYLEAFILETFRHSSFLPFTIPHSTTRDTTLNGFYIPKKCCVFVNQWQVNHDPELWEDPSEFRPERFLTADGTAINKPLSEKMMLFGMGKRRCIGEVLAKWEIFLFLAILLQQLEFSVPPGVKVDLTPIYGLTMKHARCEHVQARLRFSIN

Sequence of Cytochrome P450 3A4 (P08684 whole entry): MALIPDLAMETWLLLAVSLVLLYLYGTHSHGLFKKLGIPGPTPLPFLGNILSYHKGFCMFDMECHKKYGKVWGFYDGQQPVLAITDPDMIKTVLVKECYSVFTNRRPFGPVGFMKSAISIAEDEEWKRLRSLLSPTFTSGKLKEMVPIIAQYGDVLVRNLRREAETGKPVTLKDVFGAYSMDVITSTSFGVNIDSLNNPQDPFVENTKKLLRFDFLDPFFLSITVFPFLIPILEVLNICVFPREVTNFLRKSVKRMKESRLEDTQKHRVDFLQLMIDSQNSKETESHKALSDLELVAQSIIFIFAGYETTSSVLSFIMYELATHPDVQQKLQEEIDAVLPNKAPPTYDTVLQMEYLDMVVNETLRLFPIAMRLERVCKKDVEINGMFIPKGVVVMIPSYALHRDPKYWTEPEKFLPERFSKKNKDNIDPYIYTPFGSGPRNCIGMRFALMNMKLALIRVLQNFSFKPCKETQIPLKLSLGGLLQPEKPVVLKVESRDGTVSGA
Sequence of Cytochrome P450 2D6 (P10635 whole entry): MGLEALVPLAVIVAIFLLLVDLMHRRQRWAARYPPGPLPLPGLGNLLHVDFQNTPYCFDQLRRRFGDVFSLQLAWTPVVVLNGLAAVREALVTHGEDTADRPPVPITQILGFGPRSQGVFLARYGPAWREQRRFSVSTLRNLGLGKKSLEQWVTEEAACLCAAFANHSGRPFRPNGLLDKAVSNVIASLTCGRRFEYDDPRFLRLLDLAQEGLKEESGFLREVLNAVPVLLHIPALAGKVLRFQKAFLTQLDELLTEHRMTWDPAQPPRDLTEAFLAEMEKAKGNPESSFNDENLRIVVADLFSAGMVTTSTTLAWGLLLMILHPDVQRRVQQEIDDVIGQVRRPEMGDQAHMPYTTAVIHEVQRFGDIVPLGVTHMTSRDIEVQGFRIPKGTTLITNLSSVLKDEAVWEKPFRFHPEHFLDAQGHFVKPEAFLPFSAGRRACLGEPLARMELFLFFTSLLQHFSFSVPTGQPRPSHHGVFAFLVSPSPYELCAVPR
Sequence of Cytochrome P450 2C9 (P11712 whole entry): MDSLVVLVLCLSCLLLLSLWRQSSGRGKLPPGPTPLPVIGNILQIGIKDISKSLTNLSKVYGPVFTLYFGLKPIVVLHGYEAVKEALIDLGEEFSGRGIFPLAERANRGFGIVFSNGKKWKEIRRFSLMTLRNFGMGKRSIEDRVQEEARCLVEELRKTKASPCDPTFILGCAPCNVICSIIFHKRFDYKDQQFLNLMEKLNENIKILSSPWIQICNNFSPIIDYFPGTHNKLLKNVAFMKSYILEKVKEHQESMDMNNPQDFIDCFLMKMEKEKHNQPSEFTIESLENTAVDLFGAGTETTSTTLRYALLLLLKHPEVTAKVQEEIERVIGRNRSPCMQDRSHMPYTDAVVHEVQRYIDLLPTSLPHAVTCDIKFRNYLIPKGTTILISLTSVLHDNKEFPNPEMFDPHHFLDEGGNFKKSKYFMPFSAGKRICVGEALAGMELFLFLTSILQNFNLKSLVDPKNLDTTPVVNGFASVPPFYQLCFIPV

For the compound `Cc1ccc2c(c1)N(CCC(=O)NCCN1CCOCC1)C(=O)CO2`, the figures for the AC50 on Cytochrome P450 2C9, on Cytochrome P450 3A4 and at Cytochrome P450 2C19 (read-out: AC50) were 39.8 µM (inconclusive), 25.1 µM (inconclusive) and 39.8 µM (inconclusive), respectively.
Take `CCOC(=O)C1CCCN(CCC(=O)Nc2cc(OC)ccc2OC)C1` (centres undefined): in data set [1], the EC50 (as a rule, the concentration needed to bring the measured effect to its halfway point) is > 195 µM (not active).
The same measure, in the same setting: as for `O=C1CC(N2CCCCC2)C(=O)N1c1ccccc1` (centres undefined), the figure is > 195 µM (not active).
Regarding `CN1CCN(NC(=O)Nc2cc(Cl)cc(Cl)c2)CC1`, the EC50 in the data set on Streptococcus is > 150 µM (not active); on Streptokinase A, 21.7 µM (active); in [2], 6.77 µM (active).
With `NC(=S)N/N=C1\CC(n2nnnc2-c2ccccc2Cl)C2COC1O2` (centres undefined), the EC50 in [1] is recorded as > 195 µM (not active).
On the same count and under the same terms, as for `COCCCNC(=O)CC(NS(=O)(=O)c1ccc(C)cc1)c1ccc(OC)cc1` (centres undefined), the figure is > 195 µM (not active); as for `O=C(OCn1nnc2ccccc2c1=O)c1cc(-c2ccccc2)nc2ccccc12`, > 195 µM (not active).
Turning to `Cc1ccc(-c2nc3nc(O)cc(NC(=O)c4cccs4)n3n2)cc1`, the EC50 in the data set with Streptococcus was > 150 µM (not active); on Streptokinase A, > 150 µM (not active); in data set [2], 15.4 µM (active).
As for `Cc1sc2ncnc(N3CCC(C(=O)Nc4ccc(Cl)cc4Cl)CC3)c2c1C`, the EC50 is 66 µM (active) in the data set with Streptococcus, 91.7 µM (active) at Streptokinase A and 23.6 µM (active) in data set [2].
Regarding `NCCC(=O)NCCc1c[nH]cn1` [CARCININE], the AC50 (commonly the concentration giving half of the maximal activity seen) was 31.6 µM (inconclusive) and 10 µM (inconclusive) on Cytochrome P450 2D6; “inconclusive” at Cytochrome P450 2C19.
Consider `CO[C@H]1COC(=O)[C@@H](C)COC(=O)[C@@H](COCc2ccccc2)NC(=O)C/C=C\[C@H]1C`, for which, on Cytochrome P450 3A4, the AC50 was 3.98 µM (inconclusive).
For `COc1ccc(C(=O)CSc2[nH]c(=O)cc(C(F)(F)F)c2C#N)cc1`, the EC50 on Streptokinase A was 8.62 µM (active).
The same measure, in the same setting: as for `Cc1nc(Nc2nc(-c3ccccc3)cc(=O)[nH]2)nc2ccccc12`, the figure is > 150 µM (not active).
On to `O=C(NCc1cc(F)cc2c1OCCO2)[C@H]1C[C@@H]1[C@H](NP(=O)(c1ccccc1)c1ccccc1)c1ccccc1`, for which the AC50 on Cytochrome P450 3A4 was 3.98 µM (inconclusive).
Same read-out and setting: as for `CC1=C/C(=N/O)C([C@H]2C=C(C)CC(C)(C)[C@@H]2O)C(C)(C)C1` (some centres undefined), the figure is 5.01 µM (inconclusive).
For `O=c1[nH]c2ccccc2/c(=N\S(=O)(=O)c2ccc(Cl)cc2)n1-c1ccccc1`, the AC50 at Cytochrome P450 1A2 was 8.91 µM (inconclusive); on Cytochrome P450 2C9, 0.891 µM (inconclusive); on Cytochrome P450 3A4, 2.82 µM (inconclusive); on Cytochrome P450 2C19 (read-out: AC50), 25.1 µM (inconclusive).
As to `CCCCC1C(=O)NC(=S)NC1=O`, the EC50 in data set [1] is on record as > 195 µM (not active).
Consider `Oc1ccc(Br)cc1CNn1cnnc1`, for which the AC50 at Cytochrome P450 1A2 was 14.1 µM (inconclusive); at Cytochrome P450 2C9, 17.8 µM (inconclusive); on Cytochrome P450 3A4, 35.5 µM (inconclusive).
Consider `CCC(Nc1cc(OC)ccc1OC)=C1C(=O)NC(=O)NC1=O`, for which the values for the AC50 on Cytochrome P450 3A4 and on Cytochrome P450 2C19 (read-out: AC50) were 39.8 µM (inconclusive) and 31.6 µM (inconclusive), respectively.
Consider `NC(=NNC(=O)c1sccc1OCc1ccc(Cl)cc1Cl)c1ccccn1`, for which the EC50 at Streptokinase A is 35.4 µM (active).
With `CCC(c1nnnn1CCOC)N1CCN(C(=O)c2ccco2)CC1` (centres undefined), at Cytochrome P450 3A4, the AC50 was 28.2 µM (inconclusive).
As for `CCOC(=O)c1ccc(Oc2nc(NC)nc(Nc3ccccc3)n2)cc1`, the 50% effective concentration (EC50) in [1] is given as > 195 µM (not active).
For `N#Cc1cccc(NC(=O)N2CC3(CCN(C(=O)c4cc(C(F)(F)F)cc(C(F)(F)F)c4)CC3)C2)c1`, the figures for the AC50 on Cytochrome P450 2D6 and at Cytochrome P450 3A4 were 20 µM (inconclusive) and 31.6 µM (inconclusive), respectively.
Take `O=C(N/N=C\c1c[nH]nc1-c1ccccc1)c1cccs1`: the EC50 in data set [1] is > 195 µM (not active).
With `CCC(C)NCc1ccc(C(=O)OC)o1` (centres undefined), the AC50 at Cytochrome P450 2C9 is 0.447 µM (inconclusive); at Cytochrome P450 2D6, 14.1 µM (inconclusive); on Cytochrome P450 2C19 (read-out: AC50), 15.8 µM (inconclusive).
As to `CN(C)c1ncc2ncc(=O)n(Cc3cccs3)c2n1`, the AC50 on Cytochrome P450 2C9 was 39.8 µM (inconclusive); on Cytochrome P450 2D6, 12.6 µM (inconclusive); on Cytochrome P450 3A4 it was 15.8 µM (inconclusive).
For `O=c1[nH]c(=S)[nH]c(-c2ccccc2)c1Cc1c(O)ccc2ccccc12` [CAMBINOL], the AC50 at Cytochrome P450 1A2 is 1 µM (inconclusive); at Cytochrome P450 2C9 it was 7.94 µM (inconclusive); at Cytochrome P450 3A4, 0.631 µM (inconclusive); at Cytochrome P450 2C19 (read-out: AC50) it was 0.0794 µM (inconclusive).
For the compound `O=C(CSc1nc(-c2ccc(Cl)cc2)nc(=O)[nH]1)Nc1cccc(Cl)c1`, the EC50 at Streptokinase A was 4.65 µM (active).
Regarding `COc1cccc(C(c2sc3nc(C)nn3c2O)N2CCN(C(=O)c3ccco3)CC2)c1` (centres undefined), the EC50 in [1] is reported as > 195 µM (not active).
Same read-out and setting: in the case of `COc1ccc(CC(C)Nc2cccc(SC)c2)cc1` (centres undefined) it was > 195 µM (not active).
Same read-out and setting: in the case of `COc1ccc(Br)cc1CN1CCN(CCO)CC1` it was > 195 µM (not active).
On to `CCNc1ncc2nc(-c3cc(F)cc(F)c3)c(=O)n(CCOC)c2n1`, for which, on Cytochrome P450 3A4, the AC50 is 7.94 µM (inconclusive).
On to `C=CCC1(C(=O)NCCO)CCN(C(=O)OC(C)(C)C)CC1`, for which the EC50 in [1] is recorded as > 195 µM (not active).
For the compound `CC(=O)N1CCC2(CCCN(C(c3ccccc3)c3ccccc3)C2)CC1`, the AC50 was 31.6 µM (inconclusive) at Cytochrome P450 2C9 and 12.6 µM (inconclusive) at Cytochrome P450 3A4.
In the case of `Cc1cccc(NS(=O)(=O)c2cc3c(cc2C)NC(=O)CO3)c1`, the EC50 in [1] is reported as > 195 µM (not active).
`O=C1CC(=O)N(CCc2ccc(F)cc2)C(=O)N1`: the AC50 on Cytochrome P450 2C9 is 25.1 µM (inconclusive); on Cytochrome P450 3A4 it was 31.6 µM (inconclusive); on Cytochrome P450 2C19 (read-out: AC50), 31.6 µM (inconclusive).
For `CC(C)c1ccc(C(=O)NC(=S)Nc2ccc3[nH]c(=O)[nH]c3c2)cc1`, the EC50 on Streptokinase A was > 150 µM (not active).
Take `CN(C(=O)c1ccc(OC2CCN(Cc3ccccn3)CC2)cc1)C1CCCCC1`: the EC50 in data set [1] is reported as > 195 µM (not active).
For the compound `NC(=O)c1ccc[n+](CC(=O)OCCC23CC4CC(CC(C4)C2)C3)c1`, in data set [1], the EC50 is given as > 195 µM (not active). Also, at Cytochrome P450 2D6, the AC50 was 39.8 µM (inconclusive).
With `O=C(Nc1ccc2c(c1)nc1n2CCN(C2CCCCC2)C1)NC1CCCCC1`, on Cytochrome P450 3A4, the AC50 is 15.8 µM (inconclusive).
Turning to `CCOC(=O)c1sc(NC(=O)CSc2nnc(-c3ccccc3)[nH]2)c(C#N)c1C`, in data set [1], the EC50 is recorded as > 195 µM (not active).
With `CC(C)CC(=O)N1CCC(O)(CS(=O)(=O)Cc2ccc(Cl)cc2)CC1`, the AC50 on Cytochrome P450 3A4 is 8.91 µM (inconclusive).
Regarding `CCCn1c(SCC(=O)c2c(C)[nH]c(C)c2C(=O)OCC)nc2ccccc21`, the EC50 in data set [1] is given as > 195 µM (not active).
Same read-out and setting: in the case of `COc1ccc(N2CCN(C(CNC(=O)C(=O)NCc3ccncc3)c3ccco3)CC2)cc1` (centres undefined) it was > 195 µM (not active).
Regarding `CNc1nc(-c2ccccc2C(F)(F)F)nc2ccccc12`, the figures for the AC50 on Cytochrome P450 2D6 and on Cytochrome P450 2C19 (read-out: AC50) were 20 µM (inconclusive) and 31.6 µM (inconclusive), respectively.
`CN=C(S)N(CCc1c(C)[nH]c2ccc(F)cc12)Cc1cccnc1`: the EC50 in [1] is given as > 195 µM (not active).
